Experimental findings from patent US6335350B1, “Acetamide and substituted acetamide-containing thiourea inhibitors of herpes viruses” (American Home Products Corporation, priority 1998, dated 2002) are described below.

≈ marks a conversion by molar mass, not a printed value. Some results are limits rather than exact numbers.

In one assay the test system is HCMV wild-type. The experiment in a line: HCMV yield assay. The format is cell-based, human cytomegalovirus. Conditions: human foreskin fibroblasts; for IC50: Human betaherpesvirus 5, Fibroblast, read-out: IC50 Ug/ml HCMV. The method, boiled down:
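Value is the compound amount cutting virus yield titer by 50% (IC50) or 90% (IC90). Human foreskin fibroblasts infected with wild-type HCMV (MOI typically 0.2) under varying compound; progeny harvested day 3, titered compound-free on fibroblasts, plaques scored at 2 weeks.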

Another assay relates to HSV-1. The experiment in a line: HSV Antiviral (ELISA) Assay. Conditions: Vero cells, HSV-1; for IC50: Human alphaherpesvirus 1, Vero, read-out: IC50 Ug/ml HSV. Type of assay: cell-based, herpes simplex virus type 1. The method, boiled down:
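Replication measured as glycoprotein D signal in fixed cells: anti-gD antibody plus β-galactosidase-linked secondary, fluorogenic substrate read at 365/450 nm. Vero cells (2% FBS DMEM) received compound 30 min pre-infection, HSV-1 MOI 0.006, ~24 h incubation; IC50 relative to no-compound fluorescence.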

Another assay deals with VZV strain Ellen. The experiment in a line: VZV Antiviral (ELISA) Assay. Type of assay: cell-based, varicella-zoster virus. Conditions: human foreskin fibroblast cells; for IC50 / inhibition at 10 µg/mL: Human alphaherpesvirus 3, Fibroblast; for IC50: read-out: IC50 Ug/ml VZV; for inhibition at 10 µg/mL: read-out: % inhibition 10 ug/ml VZV, 10 ug/ml. In short, it runs like this: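 First, fibroblasts are infected at multiplicity below 0.1 and kept overnight. The harvested cell mixture then goes onto compound-containing wells for three days at 37° C. Finally, cells are fixed and viral gpII is measured by fluorogenic ELISA.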
A general note: In an ELISA, binding on a coated surface is turned into a signal by an enzyme label.

On to `COc1ccc(NC(=S)Nc2ccc(NC(C)=O)cc2)c(NCc2ccccc2)c1` [Example 245, N-{4-[3-(2-Benzylamino-4-methoxy-phenyl)-thioureido]-phenyl}-acetamide], for which the IC50 in the assay on HCMV wild-type was over 10 µg/mL; in the assay on HSV-1 it was over 10 µg/mL; with VZV strain Ellen, 3.5 µg/mL (≈ 8.32 µM). The inhibition at 10 µg/mL in the assay on VZV strain Ellen worked out at 73%.

For `CC(=O)Nc1ccc(NC(=S)Nc2ccc(OCC#N)c(Cl)c2)cc1` [Example 251, N-(4-{3-[3-Chloro-4-(2-nitrilo-ethoxy)-phenyl]-thioureido}-phenyl)-acetamide], the IC50 with HCMV wild-type was 7 µg/mL (≈ 18.7 µM); in the assay with HSV-1, over 50 µg/mL; in the assay on VZV strain Ellen, over 10 µg/mL. For the same molecule, the inhibition at 10 µg/mL in the assay on VZV strain Ellen was found to be 22%.

`CCC(C)Oc1ccc(NC(=S)Nc2ccc(NC(C)=O)cc2)cc1Cl` (stereo not drawn) [Example 252, N-{4-[3-(4-sec-Butoxy-3-chloro-phenyl)-thioureido]-phenyl}-acetamide]: the IC50 was 10 µg/mL (≈ 25.5 µM) in the assay on HCMV wild-type, 10 µg/mL (≈ 25.5 µM) in the assay on HSV-1 and over 10 µg/mL in the assay with VZV strain Ellen. Further, in the assay with VZV strain Ellen, the inhibition at 10 µg/mL was found to be 0%.

Take `COc1cc(OC)c(NC(=S)Nc2ccc(NC(C)=O)c(C#N)c2)cc1Cl` [Example 259, N-{4-[3-(5-Chloro-2,4-dimethoxy-phenyl)-thioureido]-2-cyano-phenyl}-acetamide]: the IC50 in the assay with HCMV wild-type is over 50 µg/mL; with HSV-1 it was over 50 µg/mL; with VZV strain Ellen it was over 10 µg/mL. In the assay with VZV strain Ellen, the inhibition at 10 µg/mL was found to be 28%.

As for `COc1cc(OC)c(NC(=S)Nc2cc(OC)c(NC(C)=O)cc2OC)cc1Cl` [Example 261, N-{4-[3-(5-Chloro-2,4-dimethoxy-phenyl)-thioureido]-2,5-dimethoxy-phenyl}-acetamide], the IC50 in the assay on HCMV wild-type, with HSV-1 and in the assay with VZV strain Ellen was over 10 µg/mL throughout. The inhibition at 10 µg/mL in the assay with VZV strain Ellen was 1%.

For the molecule `CC(=O)Nc1ccc(NC(=S)Nc2ccc(Oc3ccc(Cl)cc3S(=O)(=O)O)c(Cl)c2)cc1` [Example 262, 2-{4-[3-(4-Acetylamino-phenyl)-thioureido]-2-chloro-phenoxy}-5-chloro-benzenesulfonic acid], the values for the IC50 in the assay with HCMV wild-type, with HSV-1 and in the assay on VZV strain Ellen were over 50 µg/mL, over 50 µg/mL and over 10 µg/mL, respectively. Also, the inhibition at 10 µg/mL in the assay on VZV strain Ellen was found to be 15%.

For the molecule `CC(=O)Nc1ccc(NC(=S)Nc2ccc(Oc3cc(Cl)c(Cl)cc3S(=O)(=O)O)c(Cl)c2)cc1` [Example 263, 2-{4-[3-(4-Acetylamino-phenyl)-thioureido]-2-chloro-phenoxy}-4,5-dichloro-benzensulfonic acid], the IC50 in the assay with HCMV wild-type was over 50 µg/mL; with HSV-1, over 50 µg/mL; in the assay with VZV strain Ellen it was over 10 µg/mL. In addition, in the assay on VZV strain Ellen, the inhibition at 10 µg/mL turned out to be 20%.

Consider `CC(=O)Nc1ccc(NC(=S)Nc2ccc(OCCO)c(Cl)c2)cc1` [Example 265, N-(4-{3-[3-Chloro-4-(2-hydroxy-ethoxy)-phenyl]-thioureido}-phenyl)-acetamide], for which the results for the IC50 in the assay on HCMV wild-type, with HSV-1 and with VZV strain Ellen were over 50 µg/mL, over 50 µg/mL and over 10 µg/mL, respectively. In addition, the inhibition at 10 µg/mL with VZV strain Ellen was determined as 20%.

`CCCCOc1ccc(NC(=S)Nc2ccc(NC(C)=O)cc2)cc1Cl` [Example 266, N-{4-[3-(4-Butoxy-3-chloro-phenyl)-thioureido]-phenyl}-acetamide]: the IC50 in the assay with HCMV wild-type is over 10 µg/mL; in the assay on HSV-1, 12 µg/mL (≈ 30.6 µM); with VZV strain Ellen it was over 10 µg/mL. Further, the inhibition at 10 µg/mL in the assay on VZV strain Ellen came out at 10%.

In the case of `CCN(c1ccc(NC(=S)Nc2ccc(NC(C)=O)cc2)cc1Cl)C1CCCCC1` [Example 267, N-(4-{3-[3-Chloro-4-(cyclohexyl-ethyl-amino)-phenyl]-thioureido}-phenyl)-acetamide], the IC50 with HCMV wild-type, in the assay with HSV-1 and with VZV strain Ellen was over 10 µg/mL throughout. Also, in the assay on VZV strain Ellen, the inhibition at 10 µg/mL came to 25%.

As to `CCOc1ccc(NC(=S)Nc2ccc(NC(C)=O)cc2)cc1Cl` [Example 268, N-{4-[3-(3-Chloro-4-ethoxy-phenyl)-thioureido]-phenyl}-acetamide], the IC50 in the assay with HCMV wild-type was 10 µg/mL (≈ 27.5 µM); in the assay on HSV-1, over 10 µg/mL; in the assay on VZV strain Ellen, over 10 µg/mL. In the assay with VZV strain Ellen, the inhibition at 10 µg/mL was found to be 14%.

Regarding `CC(=O)Nc1ccc(NC(=S)Nc2ccc(OCc3ccccc3)c(Cl)c2)cc1` [Example 269, N-{4-[3-(4-Benzyloxy-3-chloro-phenyl)-thioureido]-phenyl}-acetamide], the values for the IC50 with HCMV wild-type, with HSV-1 and in the assay with VZV strain Ellen were 5 µg/mL (≈ 11.7 µM), over 10 µg/mL and over 10 µg/mL, respectively. Besides, the inhibition at 10 µg/mL in the assay with VZV strain Ellen turned out to be 38%.

As to `COc1cc(NCc2ccccc2)c(NC(=S)Nc2ccc(NC(C)=O)cc2)cc1Cl` [Example 271, N-{4-[3-(2-Benzylamino-5-chloro-4-methoxy-phenyl)-thioureido]-phenyl}-acetamide], the IC50 in the assay with HCMV wild-type is over 10 µg/mL; with HSV-1, 7 µg/mL (≈ 15.4 µM); in the assay on VZV strain Ellen it was 3.5 µg/mL (≈ 7.69 µM). Further, the inhibition at 10 µg/mL with VZV strain Ellen is 105%.

For `CCCN(CCC)c1ccc(NC(=S)Nc2ccc(NC(C)=O)cc2)cc1Cl` [Example 272, N-{4-[3-(3-Chloro-4-dipropylamino-phenyl)-thioureido]-phenyl}-acetamide], the IC50 in the assay with HCMV wild-type was over 10 µg/mL; in the assay with HSV-1, over 50 µg/mL; in the assay with VZV strain Ellen it was over 10 µg/mL. The inhibition at 10 µg/mL with VZV strain Ellen was 50%.

For the molecule `C=CCN(c1ccc(NC(=S)Nc2ccc(NC(C)=O)cc2)cc1Cl)C1CCCCC1` [Example 273, N-(4-{3-[4-(Allyl-cyclohexyl-amino)-3-chloro-phenyl]-thioureido}-phenyl)-cetamide], in the assay with HCMV wild-type, the “IC50 Ug/ml HCMV” value is on record as over 10 Ug/ml. Also, in the assay on HSV-1, the “IC50 Ug/ml HSV” value is over 50 Ug/ml. In the assay with VZV strain Ellen, the “% inhibition 10 ug/ml VZV” value is recorded as 46% and the “IC50 Ug/ml VZV” value is given as over 10 Ug/ml.

On to `COc1cc(OC)c(NC(=S)Nc2ccc(NC(C)=O)c(OC)c2)cc1Cl` [Example 274, N-{4-[3-(5-Chloro-2,4-dimethoxy-phenyl)-thioureido]-2-methoxy-phenyl}-acetamide], for which the figures for the IC50 in the assay with HCMV wild-type, in the assay with HSV-1 and with VZV strain Ellen were over 50 µg/mL, 5 µg/mL (≈ 12.2 µM) and over 10 µg/mL, respectively. In the assay with VZV strain Ellen, the inhibition at 10 µg/mL was 15%.

Take `COc1cc(OC)c(NC(=S)Nc2ccc(NC(C)=O)c(Cl)c2)cc1Cl` [Example 275, N-{2-Chloro-4-[3-(5-chloro-2,4-dimethoxy-phenyl)-thioureido]-phenyl}-acetamide]: the figures for the IC50 with HCMV wild-type, with HSV-1 and in the assay on VZV strain Ellen were over 10 µg/mL, 10 µg/mL (≈ 24.1 µM) and over 10 µg/mL, respectively. The inhibition at 10 µg/mL with VZV strain Ellen came out at 32%.

Take `CC(=O)Nc1ccc(NC(=S)Nc2ccc(N3CCCC4CCCCC43)c(Cl)c2)cc1` (stereo not drawn) [Example 282, N-(4-{3-[3-Chloro-4-(octahydro-quinolin-1-yl)-phenyl]-thioureido}-phenyl)-acetamide]: the IC50 in the assay on HCMV wild-type, with HSV-1 and with VZV strain Ellen was over 10 µg/mL in each case. For the same molecule, in the assay on VZV strain Ellen, the inhibition at 10 µg/mL is 50%.

As to `COc1cc(OC)c(NC(=S)Nc2cc(OC)c(NC(C)=O)cc2C)cc1Cl` [Example 285, N-{4-[3-(5-Chloro-2,4-dimethoxy-phenyl)-thioureido]-2-methoxy-5-methyl-phenyl}-acetamide], the figures for the IC50 with HCMV wild-type, in the assay on HSV-1 and in the assay with VZV strain Ellen were over 50 µg/mL, over 50 µg/mL and over 10 µg/mL, respectively. In the assay with VZV strain Ellen, the inhibition at 10 µg/mL was 18%.

For `COc1ccc(NC(=S)Nc2ccc(NC(C)=O)cc2)cc1C(F)(F)F` [Example 290, N-{4-[3-(4-Methoxy-3-trifluoromethyl-phenyl)-thioureido]-phenyl}-acetamide], the IC50 in the assay on HCMV wild-type is 5 µg/mL (≈ 13 µM); in the assay with HSV-1 it was over 50 µg/mL; in the assay on VZV strain Ellen, over 10 µg/mL. The inhibition at 10 µg/mL in the assay on VZV strain Ellen came out at 1%.

For the molecule `CC(=O)Nc1ccc(NC(=S)Nc2ccc(N(C)CCO)c(Cl)c2)cc1` [Example 291], the “IC50 Ug/ml HCMV” value in the assay with HCMV wild-type is on record as 6 Ug/ml. For the same molecule, the “IC50 Ug/ml HSV” value in the assay with HSV-1 was over 50 Ug/ml. In addition, in the assay with VZV strain Ellen, the “% inhibition 10 ug/ml VZV” value was found to be 18% and the “IC50 Ug/ml VZV” value was over 10 Ug/ml.

`COc1cc(OC)c(NC(=S)Nc2ccc(NC(C)=O)c(C(=O)c3ccccc3)c2)cc1Cl` [Example 292, N-{2-Benzoyl-4-[3-(5-chloro-2,4-dimethoxy-phenyl)-thioureido]-phenyl}-acetamide]: the figures for the IC50 with HCMV wild-type, in the assay on HSV-1 and in the assay with VZV strain Ellen were over 10 µg/mL, over 50 µg/mL and 13 µg/mL (≈ 26.9 µM), respectively. Moreover, the inhibition at 10 µg/mL with VZV strain Ellen came out at 70%.

Regarding `COc1cc(OC)c(NC(=S)Nc2ccc(NC(C)=O)cc2C)cc1Cl` [Example 297, N-{4-[3-(5-Chloro-2,4-dimethoxy-phenyl)-thioureido]-3-methyl-phenyl}-acetamide], the IC50 in the assay on HCMV wild-type is over 10 µg/mL; with HSV-1, 1 µg/mL (≈ 2.54 µM); with VZV strain Ellen, over 10 µg/mL. Moreover, in the assay on VZV strain Ellen, the inhibition at 10 µg/mL was found to be 23%.

Take `CC(=O)Nc1ccc(NC(=S)Nc2ccc(N(C)CCCN(C)C)c(Cl)c2)cc1` [Example 298, N-[4-(3-{3-Chloro-4-[(3-dimethylamino-propyl)-methyl-amino]-phenyl}-thioureido)-phenyl]-acetamide]: the IC50 in the assay with HCMV wild-type is 15 µg/mL (≈ 34.6 µM); with HSV-1 it was over 50 µg/mL; in the assay with VZV strain Ellen it was over 10 µg/mL. Besides, in the assay on VZV strain Ellen, the inhibition at 10 µg/mL came to 1%.
